# Reference: patent publication US11142526B2, “Spirocycle compounds and methods of making and using same” (H. Lundbeck A/S, priority 2017, dated 2021)
# Where two headings read alike, the source gives them in different places.
# Columns and labels:
# [1] = molecular target: MAGL (Homo sapiens (Human), UniProt Q99685); test: In vitro competitive activity-based protein profiling (gel-based, FP-Rh or HT-01 probe); assay type: biochemical; conditions: for IC50: read-out: MAGL Human PC3 (IC50)
# Description: In Vitro Competitive Activity-Based Protein Profiling.
# Proteomes (human prefrontal cortex or cell membrane fractions) (50 μL, 1.0 mg/mL total protein concentration) were preincubated with varying concentrations of inhibitors at 37° C. After 30 min, FP-Rh or HT-01 (1.0 μL, 50 μM in DMSO) was added and the mixture was incubated for another 30 min at room temperature. Reactions were quenched with SDS loading buffer (15 μL—4×) and run on SDS-PAGE.
# [2] = molecular target: T1, MAGL (Mus musculus (Mouse), UniProt O35678); test: Mouse brain proteomes from inhibitor treated mice (oral gavage, brain MAGL activity 4 h after administration); assay type: in vivo; conditions: 5 mg/kg oral gavage
# T1 sequence (O35678 whole entry): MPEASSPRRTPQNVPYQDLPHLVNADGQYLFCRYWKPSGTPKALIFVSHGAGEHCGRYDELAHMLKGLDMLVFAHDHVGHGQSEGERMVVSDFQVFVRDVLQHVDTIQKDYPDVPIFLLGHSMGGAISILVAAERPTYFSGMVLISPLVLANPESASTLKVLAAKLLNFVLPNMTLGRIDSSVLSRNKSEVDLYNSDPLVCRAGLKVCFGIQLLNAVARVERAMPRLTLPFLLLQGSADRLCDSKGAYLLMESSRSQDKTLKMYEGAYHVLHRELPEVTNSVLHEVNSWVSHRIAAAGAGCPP
# Description: Preparation of Mouse Brain Proteomes from Inhibitor Treated Mice.
# Inhibitors were administered to wild-type C57B1/6J by oral gavage in a vehicle of polyethylene glycol.
# [3] = molecular target: T1, MAGL; test: In vitro competitive activity-based protein profiling, mouse brain proteome; assay type: biochemical; conditions: for inhibition at 1 µM: mouse
# [4] = human PC3, read-out: MAGL % Inhibition at 1 μM (human PC3)
# [5] = human PFC (prefrontal cortex), read-out: MAGL % Inhibition at 1 μM (human PFC)
# Sequence of MAGL (Homo sapiens (Human), UniProt Q99685) (Q99685 whole entry): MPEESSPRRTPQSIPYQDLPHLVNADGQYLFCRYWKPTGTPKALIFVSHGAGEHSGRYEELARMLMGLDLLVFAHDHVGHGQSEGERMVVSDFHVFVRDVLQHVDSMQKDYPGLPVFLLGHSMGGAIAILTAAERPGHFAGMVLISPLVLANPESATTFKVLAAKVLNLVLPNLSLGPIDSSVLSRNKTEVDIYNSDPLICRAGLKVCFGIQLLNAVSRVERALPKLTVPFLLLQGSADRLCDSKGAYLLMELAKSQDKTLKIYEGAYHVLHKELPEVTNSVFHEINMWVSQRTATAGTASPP
smiles,measurement,setting,value
"O=C(OC(C(F)(F)F)C(F)(F)F)N1CCC2(CCCN2C(=O)c2cn3c(n2)CN(CC2CC2)CC3)CC1 [Example 154, 1,1,1,3,3,3-Hexafluoropropan-2-yl 1-(7-(cyclopropylmethyl)-5,6,7,8-tetrahydroimidazo[1,2-a]pyrazine-2-carbonyl)-1,8-diazaspiro[4.5] decane-8-carboxylate]",inhibition at 1 µM,[1]; [4],> 75%
same,inhibition at 1 µM,[1]; [5],> 75%
same,IC50,[1]; human PC3,< 100 nM
same,MAGL % Inhibition at 5 mg/kg (Mouse),[2],### (% inhibition is greater than or equal to 75%)
same,inhibition at 1 µM,[3],> 75%
"O=C(OC(C(F)(F)F)C(F)(F)F)N1CCC2(CCCN2Cc2cc(-c3ccc(F)cc3)on2)CC1 [Example 39, 1,1,1,3,3,3-Hexafluoropropan-2-yl 1-((5-(4-fluorophenyl)isoxazol-3-yl)methyl)-1,8-diazaspiro[4.5]decane-8-carboxylate]",IC50,[1]; human PC3,< 100 nM
same,MAGL % Inhibition at 5 mg/kg (Mouse),[2],### (% inhibition is greater than or equal to 75%)
same,inhibition at 1 µM,[3],> 75%
same,IC50,[3]; mouse brain,< 100 nM
"CN(C(=O)c1nnc2n1CCN(C1CC1)C2)C1(C)CCN(C(=O)OC(C(F)(F)F)C(F)(F)F)CC1 [Example 20, 1,1,1,3,3,3-hexafluoropropan-2-yl 4-(7-cyclopropyl-N-methyl-5,6,7,8-tetrahydro-[1,2,4]triazolo[4,3-a]pyrazine-3-carboxamido)-4-methylpiperidine-1-carboxylate]",inhibition at 1 µM,[1]; [4],> 75%
same,inhibition at 1 µM,[1]; [5],> 75%
same,IC50,[1]; human PC3,< 100 nM
same,MAGL % Inhibition at 5 mg/kg (Mouse),[2],### (% inhibition is greater than or equal to 75%)
same,inhibition at 1 µM,[3],> 75%
"COCC(C)N1CCn2cc(C(=O)N3CCCC34CCN(C(=O)OC(C(F)(F)F)C(F)(F)F)CC4)nc2C1 (stereo not drawn) [Example 169, 1.1,1,3,3,3-Hexafluoropropan-2-yl 1-(7-(1-methoxypropan-2-yl)-5,6,7,8-tetrahydroimidazo [1,2-a]pyrazine-2-carbonyl)-1,8-diazaspiro[4.5] decane-8-carboxylate]",inhibition at 1 µM,[1]; [4],> 75%
same,inhibition at 1 µM,[1]; [5],> 75%
same,IC50,[1]; human PC3,< 100 nM
same,MAGL % Inhibition at 5 mg/kg (Mouse),[2],# (% inhibition less or equal to 25%)
same,inhibition at 1 µM,[3],> 75%
"COc1nccc(C2(C(=O)N3CCCC34CCN(C(=O)OC(C(F)(F)F)C(F)(F)F)CC4)CC2)n1 [Example 200, 1,1,1,3,3,3-Hexafluoropropan-2-yl 1-(1-(2-methoxypyrimidin-4-yl)cyclopropane-1-carbonyl)-1,8-diazaspiro [4.5]decane-8-carboxylate]",inhibition at 1 µM,[1]; [4],> 75%
same,inhibition at 1 µM,[1]; [5],> 75%
same,IC50,[1]; human PC3,< 100 nM
same,MAGL % Inhibition at 5 mg/kg (Mouse),[2],### (% inhibition is greater than or equal to 75%)
same,inhibition at 1 µM,[3],> 75%
